Reference: patent US11571413B2, “Nicotinamide riboside treatments of domesticated meat animals” (Kansas State University Research Foundation, priority 2017, dated 2023)

Assays:
fertilized broiler eggs = assay: In ovo NR injection at 11 days of incubation: chick weight and Pectoralis major measurements (Example 1); format: in vivo, chicken
Protocol: At 11-days of incubation, 60 fertilized broiler eggs were randomly assigned to completely randomized design with a 2×2 factorial arrangement. Factor 1 comprised treatment, with eggs injected with 100 μl of 0.9% sterile saline solution (NRNeg) or 250 mM NR in sterile saline (NRPos). Factor 2 comprised injection location, with treatments injected into the yolk or albumen. Eggs were incubated at 37±3° C. and a relative humidity of 40±2% for 7 days. Humidity was increased to 60±2% at the same temperature for the final 3 days of incubation. Twenty-four hours after hatching, chicks were euthanized by exposure to CO2 and decapitation. Measurements including chick weight and left Pectoralis major weight, length, and depth were taken for analysis.

finishing barrows [1] = assay: Finishing pig carcass measures and fabrication (Example IV); format: in vivo; conditions: 10 days
Protocol: (§1) Seven days prior to the beginning of the experiment, 10 finishing barrows (initial BW 111.9±1.6 kg) were assigned to individual pens located at the East Finisher facility of the Kansas State University Swine Teaching and Research Center (Manhattan, Kans.). Each pen was 7.4 m^2 with a slatted floor, contained a nipple waterer and an individual dry feeder that allowed ad libitum access to food and water. Barrows were randomly assigned to 1 of 2 NR treatments, 0 or 30 mg/kg daily of NR mixed in Karo® syrup and administered by oral gavage. Barrows were administered their assigned treatment for 10 days, after which they were harvested under USDA inspection. Twenty-four hours after harvest, carcass measurements were taken by trained personnel, carcasses were fabricated into the 5 major wholesale cuts, and whole-boneless loins were vacuum packaged and aged for 10 days. Loin were cut into 3 chops with chop 1 being used for day-0 metmyoglobin reducing ability (MRA) analysis, chop 2 being used for day-4 MRA and oxygen consumption rate (OCR) analyses, and chop 3 for 8-day objective/subjective color evaluation and MRA and OCR analyses.

finishing barrows [2] = assay: Loin chop color stability, 8-day simulated retail display (Example IV); format: in vivo, pig; conditions: NR 30 mg/kg, 10 days
Protocol: as §1, with “analyses. There were no Treatment×Day interactions for all objective and subjective color measurements (P>0.77). Day of display affected all measures consistent with the discoloration of meat (P<0.02), except L* (lightness; 0=black and 100=white) value which was not affected (P=0.14; Table 5).” for “analyses.”

[3] = system: Fertilized Cobb 500 broiler eggs; assay: Pectoralis major NAD+ quantification, NAD/NADH assay kit (second Example VI); format: in vivo, chicken; conditions: hatched chicks
Protocol: Nicotinamide adenine dinucleotide content of the right PMM was quantified using a commercial NAD/NADH assay kit (Abnova, Taipei, Taiwan). Twenty-milligram of PMM tissue was homogenized in a propriety NAD extraction buffer, heated at 60° C. for 5 min, and propriety assay and NADH buffers were added. Samples were centrifuged at 14,000 rpm for 5 min and the supernatant was used for analysis. Standards, samples, and working reagent [propriety assay buffer, enzymes, lactate, and 3-(4,5-dimethylthiazol-2-yl)-2,5-diphenyltetrazolium bromide] were loaded onto 96-well plates and absorbance was read at 565 nm at 0 and 15 min. The change in absorbance was used to calculate amount of NAD+.

[4] = 100 μl 250 mM NR into yolk at 11 d, chicks 24 h after hatching
[5] = 8-day display, treatment effect not significant (P>0.19)

In the case of `NC(=O)c1ccc[n+]([C@@H]2O[C@H](CO)[C@@H](O)[C@H]2O)c1` [Nicotinamide riboside, nicotinamide riboside], the “Pectoralis major depth vs NRNeg” value (fertilized broiler eggs; 100 μl 250 mM NR at 11 d, treatment main effect (yolk and albumen)) is reported as “thicker muscles”, the “Chick weight and Pectoralis major weight and length vs NRNeg” value (fertilized broiler eggs; 100 μl 250 mM NR into albumen at 11 d, chicks 24 h after hatching) is reported as “no differences” and the “Chick weight vs NRNeg” value (fertilized broiler eggs; [4]) is reported as “tended to weigh more”. The “Pectoralis major length vs NRNeg” value (fertilized broiler eggs; [4]) was “longer”, the “Pectoralis major weight vs NRNeg” value (fertilized broiler eggs; [4]) was “weighed more” and the “1st rib subcutaneous fat” value (finishing barrows [1]; NR 30 mg/kg daily oral gavage) was 1.76 cm. The “10th rib subcutaneous fat” value (finishing barrows [1]; NR 30 mg/kg daily oral gavage) was 0.95 cm, the “Carcass fabrication, Belly” value (finishing barrows [1]; NR 30 mg/kg daily oral gavage) was 7.93 kg and the “Carcass fabrication, Boneless loin” value (finishing barrows [1]; NR 30 mg/kg daily oral gavage) was 10.39 kg. The “Carcass fabrication, Boston butt” value (finishing barrows [1]; NR 30 mg/kg daily oral gavage) was 3.22 kg, the “Carcass fabrication, Ham” value (finishing barrows [1]; NR 30 mg/kg daily oral gavage) was 9.63 kg and the “Carcass fabrication, Picnic shoulder” value (finishing barrows [1]; NR 30 mg/kg daily oral gavage) was 4.42 kg. For the same compound, the Carcass weight (finishing barrows [1]; NR 30 mg/kg daily oral gavage) was 97.4 kg, the “Last lumbar subcutaneous fat” value (finishing barrows [1]; NR 30 mg/kg daily oral gavage) was 0.83 cm and the “Last rib subcutaneous fat” value (finishing barrows [1]; NR 30 mg/kg daily oral gavage) was 0.91 cm. The Loin eye area (finishing barrows [1]; NR 30 mg/kg daily oral gavage) was 7.3 in², the “Marbling (National Pork Producers Council marbling score)” value (finishing barrows [1]; NR 30 mg/kg, 1 = none and 10 = abundant) was 2.4 and the “Color (National Pork Producers Council color score)” value (finishing barrows [1]; NR 30 mg/kg, 1 = pale pinkish gray to white, 6 = dark purplish red) was 3.4. The “Metmyoglobin reducing ability (MRA) vs control” value (finishing barrows [2]; [5]) was “greater”, the “Oxygen consumption rate (OCR) vs control” value (finishing barrows [2]; [5]) was “greater” and the “Loin chop L* (0 = black and 100 = white)” value (finishing barrows [2]; display day 0) was 64.4. For the same compound, the “Loin chop a* (−60 = green and 60 = red)” value (finishing barrows [2]; display day 0) was 19.7, the “Loin chop L* (0 = black and 100 = white)” value (finishing barrows [2]; display day 1) was 65.2 and the “Loin chop a* (−60 = green and 60 = red)” value (finishing barrows [2]; display day 1) was 18.8. The “Loin chop L* (0 = black and 100 = white)” value (finishing barrows [2]; display day 2) was 63.7, the “Loin chop a* (−60 = green and 60 = red)” value (finishing barrows [2]; display day 2) was 18.6 and the “Loin chop L* (0 = black and 100 = white)” value (finishing barrows [2]; display day 3) was 63.4. For the same compound, the “Loin chop a* (−60 = green and 60 = red)” value (finishing barrows [2]; display day 3) was 17.8, the “Loin chop L* (0 = black and 100 = white)” value (finishing barrows [2]; display day 4) was 63.1 and the “Loin chop a* (−60 = green and 60 = red)” value (finishing barrows [2]; display day 4) was 17.3. For the same compound, the “Loin chop L* (0 = black and 100 = white)” value (finishing barrows [2]; display day 5) was 62.9, the “Loin chop a* (−60 = green and 60 = red)” value (finishing barrows [2]; display day 5) was 16.3 and the “Loin chop L* (0 = black and 100 = white)” value (finishing barrows [2]; display day 6) was 62.7. For the same compound, the “Loin chop a* (−60 = green and 60 = red)” value (finishing barrows [2]; display day 6) was 15.6, the “Loin chop L* (0 = black and 100 = white)” value (finishing barrows [2]; display day 7) was 62.8 and the “Loin chop a* (−60 = green and 60 = red)” value (finishing barrows [2]; display day 7) was 15.1. The “Loin chop L* (0 = black and 100 = white)” value (finishing barrows [2]; display day 8) was 62.8, the “Loin chop a* (−60 = green and 60 = red)” value (finishing barrows [2]; display day 8) was 14.7 and the “Trained panelists loin chop discoloration vs control” value (finishing barrows [2]; entire 8-day display period) was “less discoloration”. For the same compound, the “Loin chop surface metmyoglobin vs control” value (finishing barrows [2]; over the 8-day display period) was “less surface metmyoglobin formation”, the “Loin chop surface oxymyoglobin vs control” value (finishing barrows [2]; over the 8-day display period) was “greater surface oxymyoglobin” and the “NAD+ content of PMM vs the other 3 treatment groups” value ([3]; 1,000 mM NR) was “more NAD^+”. The “NAD+ content of PMM among 0, 250 and 500 mM groups” value ([3]; 250 and 500 mM NR) was “did not differ”.
